Patent US20130190407A1, “CALCIUM RECEPTOR-ACTIVE MOLECULES” (NPS Pharmaceuticals, Inc., priority 1991, published 2013)

Tests used:
Assay type in all cases: cell-based
[1] = target: T1, osteoclast calcium receptor (Rattus norvegicus, UniProt P48442); assay: [Ca2+]i (indo-1) in single rat osteoclasts; conditions: Table 6; rat osteoclasts, indo-1
T1 sequence (P48442 20-1079): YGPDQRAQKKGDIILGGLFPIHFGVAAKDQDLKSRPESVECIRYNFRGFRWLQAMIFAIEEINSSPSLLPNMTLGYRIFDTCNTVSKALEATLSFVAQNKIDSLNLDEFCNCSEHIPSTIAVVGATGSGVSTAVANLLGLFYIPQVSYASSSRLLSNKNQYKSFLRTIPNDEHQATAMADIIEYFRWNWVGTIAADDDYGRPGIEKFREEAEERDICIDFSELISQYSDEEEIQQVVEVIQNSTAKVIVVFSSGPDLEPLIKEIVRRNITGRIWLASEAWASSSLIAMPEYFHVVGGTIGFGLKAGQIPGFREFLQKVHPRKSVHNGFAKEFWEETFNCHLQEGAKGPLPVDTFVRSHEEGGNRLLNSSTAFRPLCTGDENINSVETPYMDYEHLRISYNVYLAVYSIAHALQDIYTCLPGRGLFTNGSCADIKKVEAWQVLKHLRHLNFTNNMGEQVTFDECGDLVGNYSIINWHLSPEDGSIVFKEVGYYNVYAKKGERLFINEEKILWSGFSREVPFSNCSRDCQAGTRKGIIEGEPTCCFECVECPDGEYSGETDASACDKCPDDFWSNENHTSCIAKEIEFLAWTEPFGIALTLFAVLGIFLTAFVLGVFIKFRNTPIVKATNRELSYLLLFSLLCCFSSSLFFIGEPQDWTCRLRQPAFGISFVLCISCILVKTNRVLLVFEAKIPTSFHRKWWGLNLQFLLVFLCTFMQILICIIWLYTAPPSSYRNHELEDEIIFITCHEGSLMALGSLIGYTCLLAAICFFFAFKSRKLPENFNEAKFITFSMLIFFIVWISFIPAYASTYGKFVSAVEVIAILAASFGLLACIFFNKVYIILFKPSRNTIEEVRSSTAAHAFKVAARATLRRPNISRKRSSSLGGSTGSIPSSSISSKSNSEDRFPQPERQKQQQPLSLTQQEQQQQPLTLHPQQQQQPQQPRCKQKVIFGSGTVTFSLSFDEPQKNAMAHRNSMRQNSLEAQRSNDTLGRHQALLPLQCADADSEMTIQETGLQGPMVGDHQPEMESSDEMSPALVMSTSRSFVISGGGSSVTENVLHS

[2] = target: T2, human parathyroid cell calcium receptor (Homo sapiens, UniProt P41180, E1011Q/Q926R); assay: Cl- current in Xenopus oocytes injected with pHuPCaR 5.2; conditions: 3 to 30 μM; 0.3 mM extracellular Ca2+
T2 construct: appear to be full-length clones corresponding to the 5 Kb mRNA; expressed in transfected cells; host or cells: Xenopus laevis oocytes injected with pHuPCaR 5.2
T2 sequence (P41180 20-1088 isoform P41180-2 Q936R/E1021Q): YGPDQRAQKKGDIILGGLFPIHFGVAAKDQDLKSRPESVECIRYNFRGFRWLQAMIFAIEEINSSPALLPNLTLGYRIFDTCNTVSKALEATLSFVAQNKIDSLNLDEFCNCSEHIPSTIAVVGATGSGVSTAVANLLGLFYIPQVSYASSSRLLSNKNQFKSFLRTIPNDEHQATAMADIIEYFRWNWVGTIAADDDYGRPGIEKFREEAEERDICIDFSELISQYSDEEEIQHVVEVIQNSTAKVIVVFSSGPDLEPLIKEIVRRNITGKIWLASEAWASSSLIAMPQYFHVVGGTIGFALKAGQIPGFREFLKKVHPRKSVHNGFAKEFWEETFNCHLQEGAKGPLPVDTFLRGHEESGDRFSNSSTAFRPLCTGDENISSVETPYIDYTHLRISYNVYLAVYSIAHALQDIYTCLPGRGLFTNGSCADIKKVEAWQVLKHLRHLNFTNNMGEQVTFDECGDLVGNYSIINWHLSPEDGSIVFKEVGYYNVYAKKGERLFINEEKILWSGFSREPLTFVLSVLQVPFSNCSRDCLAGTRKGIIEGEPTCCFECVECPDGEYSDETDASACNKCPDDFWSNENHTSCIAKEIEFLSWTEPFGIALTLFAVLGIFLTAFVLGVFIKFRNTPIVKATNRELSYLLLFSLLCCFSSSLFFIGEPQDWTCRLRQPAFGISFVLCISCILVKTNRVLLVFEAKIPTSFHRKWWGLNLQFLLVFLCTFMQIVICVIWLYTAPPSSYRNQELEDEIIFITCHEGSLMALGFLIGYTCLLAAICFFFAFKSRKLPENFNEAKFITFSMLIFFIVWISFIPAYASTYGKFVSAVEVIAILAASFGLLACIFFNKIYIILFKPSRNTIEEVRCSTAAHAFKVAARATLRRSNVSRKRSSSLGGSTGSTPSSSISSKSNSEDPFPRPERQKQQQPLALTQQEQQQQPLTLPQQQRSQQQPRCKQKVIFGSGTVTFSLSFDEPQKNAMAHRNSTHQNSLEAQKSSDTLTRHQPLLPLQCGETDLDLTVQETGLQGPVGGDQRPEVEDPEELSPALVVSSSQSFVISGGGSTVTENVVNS
Method: Xenopus oocytes were injected with pHuPCaR 5.2, the 5.2 Kb cDNA encoding a parathyroid cell calcium receptor derived from a human parathyroid cell adenoma. (See Example 27.) After two to three days, Cl^− currents were measured in the oocytes using a two-electrode voltage clamp.

[3] = target: T3, bovine parathyroid cell calcium receptor (Bos taurus, UniProt P35384); assay: Cl- current in Xenopus oocytes injected with BoPCaR 1; conditions: 1 mM extracellular Ca2+
T3 construct: isolation of a single clone (BoPCaR 1) with a cDNA insert of 5.3 kb; expressed in transfected cells
T3 sequence (P35384 20-1085): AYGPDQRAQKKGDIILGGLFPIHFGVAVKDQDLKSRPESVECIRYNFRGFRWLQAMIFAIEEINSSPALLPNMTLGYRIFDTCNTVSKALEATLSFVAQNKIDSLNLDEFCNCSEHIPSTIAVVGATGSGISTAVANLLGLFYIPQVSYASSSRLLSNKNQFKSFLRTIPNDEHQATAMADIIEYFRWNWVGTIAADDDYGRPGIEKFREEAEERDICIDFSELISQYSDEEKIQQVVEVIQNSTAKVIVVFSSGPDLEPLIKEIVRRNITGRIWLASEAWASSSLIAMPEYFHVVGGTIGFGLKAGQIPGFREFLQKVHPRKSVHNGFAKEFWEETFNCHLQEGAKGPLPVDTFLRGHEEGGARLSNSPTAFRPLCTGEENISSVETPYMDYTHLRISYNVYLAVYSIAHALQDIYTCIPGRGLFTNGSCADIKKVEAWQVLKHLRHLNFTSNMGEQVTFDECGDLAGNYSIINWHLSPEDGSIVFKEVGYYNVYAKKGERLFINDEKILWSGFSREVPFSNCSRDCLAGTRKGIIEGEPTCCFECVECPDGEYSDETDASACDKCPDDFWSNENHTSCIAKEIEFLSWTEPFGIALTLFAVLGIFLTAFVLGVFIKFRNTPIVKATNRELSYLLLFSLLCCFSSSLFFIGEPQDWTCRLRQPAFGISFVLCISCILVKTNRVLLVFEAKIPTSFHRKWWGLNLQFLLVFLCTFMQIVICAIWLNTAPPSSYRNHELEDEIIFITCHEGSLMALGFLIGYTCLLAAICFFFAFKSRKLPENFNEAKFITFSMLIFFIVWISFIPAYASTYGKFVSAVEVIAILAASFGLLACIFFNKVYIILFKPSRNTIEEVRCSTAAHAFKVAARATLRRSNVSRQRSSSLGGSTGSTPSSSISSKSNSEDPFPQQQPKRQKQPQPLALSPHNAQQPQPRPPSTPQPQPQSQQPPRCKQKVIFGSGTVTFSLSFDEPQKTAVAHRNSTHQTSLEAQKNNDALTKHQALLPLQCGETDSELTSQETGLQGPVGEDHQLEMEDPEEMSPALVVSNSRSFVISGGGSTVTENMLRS
Method: Several pharmacological and biochemical criteria were used to identify this clone as encoding a bona fide bovine parathyroid Ca^2+ receptor. […] These responses increased markedly over a period of one to four days after injection of the eggs with cRNA prepared from the BoPCaR 1 cDNA. Furthermore, the ranges of the concentrations of the two cations eliciting this response were very similar to those shown previously to act on bovine parathyroid cells in vitro.
Xenopus oocytes were injected with BoPCaR 1, the 5.3 Kb cDNA encoding a bovine parathyroid cell calcium receptor as described in Example 25. After two to three days, Cl^− currents were examined in the oocytes using a two-electrode voltage clamp.
Xenopus oocytes were injected with BoPCaR 1 as described in Example 25. After two to three days, Cl^− currents were examined in the oocytes using two electrode voltage clamp.

Bovine parathyroid cells [4] = assay: Inositol phosphate formation in bovine parathyroid cells
Method: After 30 seconds, the reaction was terminated by the addition of CHCl3:MeOH:HCl and IP1 (circles) and IP3 (triangles) separated by anion exchange chromatography. Each point is the mean of 2 experiments, each performed in triplicate.
This section describes procedures measuring inositol phosphate formation. Membrane phospholipids were labeled by incubating parathyroid cells with 4 μCi/ml ^3H-myo-inositol for 20-24 hours. Cells were then washed and resuspended in PCB containing 0.5 mM CaCl2 and 0.1% BSA. Incubations were performed in microfuge tubes in the absence or presence of various concentrations of organic polycation for different times. Reactions were terminated by the addition of 1 ml chloroform-methanol-12 N HCl (200:100:1; v/v/v). Aqueous phytic acid hydrolysate (200 μl; 25 μg phosphate/tube). The tubes were centrifuged and 600 μl of the aqueous phase was diluted into 10 ml water.
Inositol phosphates were separated by ion-exchange chromatography using AG1-X8 in either the chloride- or formate-form. When only IP3 levels were to be determined, the chloride-form was used, whereas the formate form was used to resolve the major inositol phosphates (IP3, IP2, and IP1). […] The last eluate was diluted and counted. […] The eluted samples from the formate columns were rotary evaporated, the residues brought up in cocktail, and counted.

Bovine parathyroid cells [5] = assay: PTH secretion from bovine parathyroid cells; conditions: concentrations that mobilize intracellular Ca2+
Method: PTH secretion was measured by first suspending cells in PCB containing 0.5 mM CaCl2 and 0.1% BSA.
Counting of samples and data reduction were performed on a Packard Cobra 5005 gamma counter.

Bovine parathyroid cells [6] = test system: Bovine parathyroid cells
Method: This section describes measuring cyclic AMP levels. Cells were incubated as above for PTH secretion studies and at the end of the incubation, a 0.15-ml sample was taken and transferred to 0.85 ml of hot (70° C.) water and heated at this temperature for 5-10 minutes. The tubes were subsequently frozen and thawed several times and the cellular debris sedimented by centrifugation. Portions of the supernatant were acetylated and cyclic AMP concentrations determined by radioimmunoassay.
Bovine parathyroid cells were cultured for 16 hours with or without 100 ng/ml pertussis toxin. […] Each value is the mean±SEM of three experiments.

| Molecule | EC50 [1] | Cl- current [2] | Cl- current [3] | formation of IP3 (Bovine parathyroid cells [4]) | PTH secretion (Bovine parathyroid cells [5]) | cyclic AMP (% of control), control (Bovine parathyroid cells [6]) |
| --- | --- | --- | --- | --- | --- | --- |
| NCCCNCCCCNCCCNCCCNCCCNC(=O)Cc1c[nH]c2ccccc12 [NPS 019] | > 300 µM | evoked increases in the Cl^− current | oscillatory increases in the Cl^− current | – | – | – |
| protamine | – | – | – | rapid (within 30 seconds) increase in the formation of IP3 | inhibited PTH secretion to the same extent as extracellular Ca^2+ | 20 ± 4 % of control |
